According to ChEMBL document CHEMBL1201862, “PubChem BioAssay data set” (2004):
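48-hour exposure; five concentrations; linearly interpolated endpoints. GI50 is the concentration that inhibits growth by half.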 The source made the active and inactive calls. Rule as the data show it: active = GI50 up to about 1.1 µM and inactive = higher.

Experiments:
Assay in all cases: DTP human tumour cell line panel, 48 h
SF-539 = system: SF-539
SF-268 = system: SF-268
M14 = system: M14
OVCAR-8 = system: OVCAR-8
RXF 393 = system: RXF 393
HCT-15 = system: HCT-15
SK-MEL-2 = system: SK-MEL-2
SK-MEL-28 = system: SK-MEL-28
NCI-H522 = system: NCI-H522
CAKI-1 = system: CAKI-1
HOP-62 = system: HOP-62
MDA-MB-435 = system: MDA-MB-435
SR = system: SR
ACHN = system: ACHN
A549 = system: A549
Hs-578T = system: Hs-578T
DU-145 = system: DU-145
786-0 = system: 786-0
NCI-H23 = system: NCI-H23
NCI/ADR-RES = system: NCI/ADR-RES
TK-10 = system: TK-10
UO-31 = system: UO-31
UACC-257 = system: UACC-257
U-251 = system: U-251
NCI-H460 = system: NCI-H460
Malme-3M = system: Malme-3M
SK-MEL-5 = system: SK-MEL-5
OVCAR-5 = system: OVCAR-5
T47D = system: T47D
HOP-92 = system: HOP-92
SNB-75 = system: SNB-75
SNB-19 = system: SNB-19
OVCAR-3 = system: OVCAR-3
SK-OV-3 = system: SK-OV-3
SF-295 = system: SF-295
SW-620 = system: SW-620
IGROV-1 = system: IGROV-1
KM12 = system: KM12
HCT-116 = system: HCT-116
OVCAR-4 = system: OVCAR-4
CCRF-CEM = system: CCRF-CEM
HCC 2998 = system: HCC 2998
HT-29 = system: HT-29
RPMI-8226 = system: RPMI-8226
HL-60 = system: HL-60
MDA-N = system: MDA-N
NCI-H226 = system: NCI-H226
MDA-MB-231 = system: MDA-MB-231
EKVX = system: EKVX
A498 = system: A498
PC-3 = system: PC-3
SN12C = system: SN12C
BT-549 = system: BT-549
COLO 205 = system: COLO 205
LOX IMVI = system: LOX IMVI
MOLT-4 = system: MOLT-4
MCF7 = system: MCF7
K562 = system: K562
UACC-62 = system: UACC-62

O=C(O)c1cc2c(cc1CC(Cc1ccc3c(c1)CCC3)C(=O)O)CCC2 (stereo not given)
GI50 (SF-539): > 100 µM (inactive) | GI50 (SF-268): > 100 µM (inactive) | GI50 (M14): > 100 µM (inactive) | GI50 (OVCAR-8): > 100 µM (inactive) | GI50 (RXF 393): > 100 µM (inactive) | GI50 (HCT-15): > 100 µM | GI50 (SK-MEL-2): > 100 µM (inactive) | GI50 (SK-MEL-28): > 100 µM (inactive) | GI50 (NCI-H522): > 100 µM (inactive) | GI50 (CAKI-1): > 100 µM (inactive) | GI50 (HOP-62): > 100 µM (inactive) | GI50 (MDA-MB-435): > 100 µM (inactive) | GI50 (SR): > 100 µM (inactive) | GI50 (ACHN): > 100 µM (inactive) | GI50 (A549): > 100 µM (inactive) | GI50 (Hs-578T): > 100 µM (inactive) | GI50 (DU-145): > 100 µM (inactive) | GI50 (786-0): > 100 µM (inactive) | GI50 (NCI-H23): > 100 µM (inactive) | GI50 (NCI/ADR-RES): > 100 µM (inactive) | GI50 (TK-10): > 100 µM (inactive) | GI50 (UO-31): > 100 µM (inactive) | GI50 (UACC-257): > 100 µM (inactive) | GI50 (U-251): > 100 µM (inactive) | GI50 (NCI-H460): > 100 µM (inactive) | GI50 (Malme-3M): > 100 µM (inactive) | GI50 (SK-MEL-5): > 100 µM (inactive) | GI50 (OVCAR-5): > 100 µM (inactive) | GI50 (T47D): > 100 µM (inactive) | GI50 (HOP-92): 20.6 µM (inactive) | GI50 (SNB-75): 98.9 µM (inactive) | GI50 (SNB-19): > 100 µM (inactive) | GI50 (OVCAR-3): > 100 µM (inactive) | GI50 (SK-OV-3): > 100 µM (inactive) | GI50 (SF-295): > 100 µM (inactive) | GI50 (SW-620): > 100 µM (inactive) | GI50 (IGROV-1): > 100 µM (inactive) | GI50 (KM12): > 100 µM (inactive) | GI50 (HCT-116): > 100 µM (inactive) | GI50 (OVCAR-4): > 100 µM (inactive) | GI50 (CCRF-CEM): > 100 µM (inactive) | GI50 (HCC 2998): > 100 µM (inactive) | GI50 (HT-29): > 100 µM (inactive) | GI50 (RPMI-8226): > 100 µM (inactive) | GI50 (HL-60): > 100 µM (inactive) | GI50 (MDA-N): > 100 µM (inactive) | GI50 (NCI-H226): > 100 µM (inactive) | GI50 (MDA-MB-231): > 100 µM (inactive) | GI50 (EKVX): > 100 µM (inactive) | GI50 (A498): > 100 µM (inactive) | GI50 (PC-3): > 100 µM (inactive) | GI50 (SN12C): > 100 µM (inactive) | GI50 (BT-549): > 100 µM (inactive) | GI50 (COLO 205): > 100 µM (inactive) | GI50 (LOX IMVI): > 100 µM (inactive) | GI50 (MOLT-4): > 100 µM (inactive) | GI50 (MCF7): > 100 µM (inactive)

COc1ccc2c(c1)CCC(CN1CCN(CCOC(c3ccc(F)cc3)c3ccc(F)cc3)CC1)C2O (stereo not given)
GI50 (SF-539): 30.3 µM (inactive) | GI50 (SF-268): 13.9 µM (inactive) | GI50 (M14): 12.2 µM (inactive) | GI50 (OVCAR-8): 13.8 µM (inactive) | GI50 (K562): 4.51 µM (inactive) | GI50 (RXF 393): 12.3 µM (inactive) | GI50 (HCT-15): 10.4 µM | GI50 (SK-MEL-2): 15 µM (inactive) | GI50 (SK-MEL-28): 14.6 µM (inactive) | GI50 (NCI-H522): 14.8 µM (inactive) | GI50 (CAKI-1): 15.8 µM (inactive) | GI50 (HOP-62): 16.1 µM (inactive) | GI50 (MDA-MB-435): 16 µM (inactive) | GI50 (SR): 6.28 µM (inactive) | GI50 (ACHN): 5.93 µM (inactive) | GI50 (A549): 16.3 µM (inactive) | GI50 (Hs-578T): 15.4 µM (inactive) | GI50 (DU-145): 18.1 µM (inactive) | GI50 (786-0): 11.7 µM (inactive) | GI50 (NCI-H23): 14.5 µM (inactive) | GI50 (NCI/ADR-RES): 12.5 µM (inactive) | GI50 (TK-10): 15 µM (inactive) | GI50 (UACC-62): 11.5 µM (inactive) | GI50 (UACC-257): 12.9 µM (inactive) | GI50 (U-251): 13.3 µM (inactive) | GI50 (NCI-H460): 16.4 µM (inactive) | GI50 (Malme-3M): 14.4 µM (inactive) | GI50 (SK-MEL-5): 5.65 µM (inactive) | GI50 (OVCAR-5): 15.2 µM (inactive) | GI50 (T47D): 11.2 µM (inactive) | GI50 (HOP-92): 12.2 µM (inactive) | GI50 (SNB-75): 16.8 µM (inactive) | GI50 (SNB-19): 17.2 µM (inactive) | GI50 (OVCAR-3): 14.9 µM (inactive) | GI50 (SK-OV-3): 15.5 µM (inactive) | GI50 (SF-295): 17.9 µM (inactive) | GI50 (SW-620): 21.1 µM (inactive) | GI50 (IGROV-1): 13.8 µM (inactive) | GI50 (KM12): 19.1 µM (inactive) | GI50 (HCT-116): 11.1 µM (inactive) | GI50 (OVCAR-4): 14.2 µM (inactive) | GI50 (CCRF-CEM): 14.9 µM (inactive) | GI50 (HCC 2998): 3.49 µM (inactive) | GI50 (HT-29): 5.09 µM (inactive) | GI50 (RPMI-8226): 6.75 µM (inactive) | GI50 (HL-60): 0.687 µM (active) | GI50 (MDA-N): 15.6 µM (inactive) | GI50 (NCI-H226): 16 µM (inactive) | GI50 (MDA-MB-231): 13.6 µM (inactive) | GI50 (EKVX): 11.6 µM (inactive) | GI50 (A498): 3.93 µM (inactive) | GI50 (PC-3): 11.7 µM (inactive) | GI50 (SN12C): 17.3 µM (inactive) | GI50 (BT-549): 14.4 µM (inactive) | GI50 (COLO 205): 4.59 µM (inactive) | GI50 (LOX IMVI): 15.3 µM (inactive) | GI50 (MOLT-4): 10.5 µM (inactive) | GI50 (MCF7): 19.3 µM (inactive)
